Experiments:
[1] = given intravenously; cited from earlier work
[2] = tested on: intestinal fragments from the mice; assay: In vitro 59Fe3+ uptake by intestinal fragments from EGF-fed mice; set-up: species or system mouse; conditions: intestinal fragments of mice given about 1 n.mole/day EGF in drinking water; 0-450 μM Fe3+ nitrilotriacetate chelate; n in parentheses
Description: (§1) (A) Six week old, male To mice received doses averaging 1 n.mole/day of mouse epidermal growth factor in their drinking water during a period of up to 7 days, a control group of similar mice receiving plain drinking water. Iron absorption was then studied in the mice by both in vitro and in vivo techniques. The former, using techniques as described by Raja et al, Cell Biochem. and Funct., 1987, 5, 69-76, involved incubation of intestinal fragments from the mice with a 0-450 μM solution of a Fe^3+ chelate (the 2:1 nitrilotriacetate:iron(III) complex) whilst the latter, using techniques as described by Simpson and Peters, Biochim. Biophys. Acta., 1986, 856, 115-122), involved instillation of 50-100 μl of a 250 μM solution of the Fe^3+ chelate into a tied-off loop of intestine of an anaesthetised mouse.

[3] = tested on: duodenum; assay: Duodenum wet weight and cell turnover (L-ornithine decarboxylase activity) after oral EGF; format: in vivo, mouse; conditions: oral EGF about 1 n.mole/day, up to 7 days
[4] = tested on: mice; assay: Whole body retention of intragastric 59Fe3+ by gamma counting; format: in vivo, mouse; conditions: EGF in drinking water for 3 days, 12 hours fast, intragastric 1 μCurie 59Fe3+ as 50 μl of 100 μM chelate; whole body count
Description: (B) The procedure described under (A) was repeated but with the treated mice receiving the EGF for 3 rather than 7 days. After fasting for 12 hours both the EGF-treated and the control mice were treated intragastrically with 1 μCurie of ^59 Fe^3+ administered as 50 μl of a 100 μM aqueous solution of the radiolabelled 2:1 nitrilotriacetic acid:iron(III) complex. The mice were subjected to a whole body count by gamma counting at 3 hours and 7 days later.

[5] = tested on: tied-off loop of intestine of an anaesthetised mouse; assay: In vivo 59Fe3+ uptake from tied-off loop of intestine of anaesthetised mouse
Description: as §1

[6] = mean ± SE, oral EGF about 1 n.mole/day in drinking water, 250 μM Fe3+ chelate in tied-off loop, p < 0.01 vs controls

In the case of epidermal growth factor [EGF], the “Half life in vivo” value [1] is given as “about 21/2”, the “Vmax for 59Fe3+ uptake” value [2] is given as 9.4 ± 1.1 pmol/mg/min and the “Cell turnover rates as reflected by L-ornithine decarboxylase activity in the duodenum” value [3] is given as “elevated”. For the same substance, the “Percentage of the 59Fe3+ present at 3 hours which was retained after 7 days” value [4] was 21.0±3.2, the “Time course of total mucosal uptake of 59Fe3+ in vivo” value ([5]; EGF in drinking water for up to 7 days) was “maximal after 3 days” and the Total mucosal flux ([5]; mean ± SE, oral EGF about 1 n.mole/day in drinking water, 250 μM Fe3+ chelate in tied-off loop, p < 0.001 vs controls) was 92.4 ± 8.4 pmol 59Fe3+ /mg tissue/10 minu. The Carcass transfer [5, 6] was 35.3 ± 2.6 pmol 59Fe3+ /mg tissue/10 minu and the Mucosal retention [5, 6] was 57.1 ± 6.3 pmol 59Fe3+ /mg tissue/10 minu.
